Results as given in ChEMBL document CHEMBL5291721, “A preclinical secondary pharmacology resource illuminates target-adverse drug reaction associations of marketed drugs” (Nat Commun, 2023).

Tests used:
[1] = biological target: T1, Muscarinic acetylcholine receptor M2 (Homo sapiens, UniProt P08172); format: functional, cell-based
T1 sequence (P08172 whole entry): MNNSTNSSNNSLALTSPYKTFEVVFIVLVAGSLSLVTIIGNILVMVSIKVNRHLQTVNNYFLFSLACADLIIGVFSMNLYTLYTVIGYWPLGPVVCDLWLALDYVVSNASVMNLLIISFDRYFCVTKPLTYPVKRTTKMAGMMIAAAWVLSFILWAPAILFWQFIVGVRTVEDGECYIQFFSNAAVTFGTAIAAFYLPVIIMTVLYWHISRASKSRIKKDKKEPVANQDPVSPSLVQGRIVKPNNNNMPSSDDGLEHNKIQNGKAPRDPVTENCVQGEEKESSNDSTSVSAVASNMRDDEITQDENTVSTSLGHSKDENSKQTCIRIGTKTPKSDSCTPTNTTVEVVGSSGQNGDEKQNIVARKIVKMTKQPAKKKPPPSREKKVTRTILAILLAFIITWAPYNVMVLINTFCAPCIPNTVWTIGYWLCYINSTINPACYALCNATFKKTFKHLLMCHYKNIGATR

Cannabinoid receptor 1 [2] = biological target: T2, Cannabinoid receptor 1 (Homo sapiens, UniProt P21554); format: functional, cell-based
T2 sequence (P21554 whole entry): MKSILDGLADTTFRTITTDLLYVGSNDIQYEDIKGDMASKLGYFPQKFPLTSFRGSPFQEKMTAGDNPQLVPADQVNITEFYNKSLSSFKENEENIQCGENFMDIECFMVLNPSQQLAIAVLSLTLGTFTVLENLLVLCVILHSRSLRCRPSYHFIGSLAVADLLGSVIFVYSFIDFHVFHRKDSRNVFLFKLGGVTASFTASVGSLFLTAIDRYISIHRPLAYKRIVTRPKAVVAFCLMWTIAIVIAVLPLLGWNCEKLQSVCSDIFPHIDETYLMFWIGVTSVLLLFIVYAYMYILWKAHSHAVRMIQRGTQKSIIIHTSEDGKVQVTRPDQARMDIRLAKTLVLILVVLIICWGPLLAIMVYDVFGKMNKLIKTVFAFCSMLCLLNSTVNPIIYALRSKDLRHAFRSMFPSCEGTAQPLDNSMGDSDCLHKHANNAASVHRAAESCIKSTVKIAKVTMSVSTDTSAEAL

[3] = biological target: T3, Cholecystokinin receptor type A (Homo sapiens, UniProt P32238)
T3 sequence (P32238 whole entry): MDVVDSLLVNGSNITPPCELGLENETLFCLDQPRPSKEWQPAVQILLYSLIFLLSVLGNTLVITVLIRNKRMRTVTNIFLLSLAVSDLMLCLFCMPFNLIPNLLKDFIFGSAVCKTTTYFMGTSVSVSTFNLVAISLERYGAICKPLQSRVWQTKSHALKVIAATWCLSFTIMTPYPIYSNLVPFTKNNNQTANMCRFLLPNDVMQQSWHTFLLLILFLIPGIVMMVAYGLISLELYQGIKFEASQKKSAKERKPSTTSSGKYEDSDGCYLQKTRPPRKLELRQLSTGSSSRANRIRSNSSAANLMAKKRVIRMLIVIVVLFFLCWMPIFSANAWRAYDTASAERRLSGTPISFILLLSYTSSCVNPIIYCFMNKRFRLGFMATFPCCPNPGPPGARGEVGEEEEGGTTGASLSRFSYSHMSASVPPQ

Endothelin-1 receptor = biological target: T4, Endothelin-1 receptor (Homo sapiens, UniProt P25101)
T4 sequence (P25101 whole entry): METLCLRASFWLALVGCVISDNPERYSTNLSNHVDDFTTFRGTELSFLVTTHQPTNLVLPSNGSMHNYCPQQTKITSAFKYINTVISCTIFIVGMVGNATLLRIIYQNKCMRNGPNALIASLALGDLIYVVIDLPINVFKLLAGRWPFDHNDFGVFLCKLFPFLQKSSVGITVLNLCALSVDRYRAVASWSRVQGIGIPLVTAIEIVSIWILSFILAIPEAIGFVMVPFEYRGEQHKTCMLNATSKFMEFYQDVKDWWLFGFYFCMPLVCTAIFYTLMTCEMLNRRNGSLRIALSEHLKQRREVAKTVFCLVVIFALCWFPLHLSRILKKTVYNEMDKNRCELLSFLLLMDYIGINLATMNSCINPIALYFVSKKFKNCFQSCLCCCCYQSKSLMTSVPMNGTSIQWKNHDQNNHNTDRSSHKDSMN

[4] = biological target: Gamma-aminobutyric acid receptor subunit alpha-1 (Rattus norvegicus, UniProt P62813); format: functional
Sequence of Gamma-aminobutyric acid receptor subunit alpha-1 (P62813 whole entry): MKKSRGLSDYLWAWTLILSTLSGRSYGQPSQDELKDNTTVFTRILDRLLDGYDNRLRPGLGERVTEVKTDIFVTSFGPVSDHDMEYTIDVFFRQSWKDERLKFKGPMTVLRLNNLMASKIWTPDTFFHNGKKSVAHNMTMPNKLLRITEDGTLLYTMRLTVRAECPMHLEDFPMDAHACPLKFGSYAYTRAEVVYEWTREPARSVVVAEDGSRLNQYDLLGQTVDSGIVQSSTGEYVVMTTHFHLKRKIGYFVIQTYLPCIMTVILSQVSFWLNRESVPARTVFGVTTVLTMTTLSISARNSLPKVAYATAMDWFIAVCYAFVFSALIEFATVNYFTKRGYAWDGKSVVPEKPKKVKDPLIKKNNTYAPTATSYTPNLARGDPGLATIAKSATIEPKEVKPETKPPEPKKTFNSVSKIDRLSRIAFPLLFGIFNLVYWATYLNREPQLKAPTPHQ

Vasopressin V2 receptor = Vasopressin V2 receptor (Homo sapiens, UniProt P30518)
Sequence of Vasopressin V2 receptor (P30518 whole entry): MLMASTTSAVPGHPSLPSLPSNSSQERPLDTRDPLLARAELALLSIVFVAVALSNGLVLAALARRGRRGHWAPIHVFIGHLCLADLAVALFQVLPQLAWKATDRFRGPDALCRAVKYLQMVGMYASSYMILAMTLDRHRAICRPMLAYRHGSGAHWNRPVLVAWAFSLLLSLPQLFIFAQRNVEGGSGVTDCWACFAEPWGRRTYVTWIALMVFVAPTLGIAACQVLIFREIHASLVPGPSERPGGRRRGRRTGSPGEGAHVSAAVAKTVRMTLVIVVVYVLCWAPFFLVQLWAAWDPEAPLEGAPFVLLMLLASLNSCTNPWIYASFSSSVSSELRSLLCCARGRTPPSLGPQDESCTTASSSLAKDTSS

[5] = biological target: T5, Beta-2 adrenergic receptor (Homo sapiens, UniProt P07550)
T5 sequence (P07550 whole entry): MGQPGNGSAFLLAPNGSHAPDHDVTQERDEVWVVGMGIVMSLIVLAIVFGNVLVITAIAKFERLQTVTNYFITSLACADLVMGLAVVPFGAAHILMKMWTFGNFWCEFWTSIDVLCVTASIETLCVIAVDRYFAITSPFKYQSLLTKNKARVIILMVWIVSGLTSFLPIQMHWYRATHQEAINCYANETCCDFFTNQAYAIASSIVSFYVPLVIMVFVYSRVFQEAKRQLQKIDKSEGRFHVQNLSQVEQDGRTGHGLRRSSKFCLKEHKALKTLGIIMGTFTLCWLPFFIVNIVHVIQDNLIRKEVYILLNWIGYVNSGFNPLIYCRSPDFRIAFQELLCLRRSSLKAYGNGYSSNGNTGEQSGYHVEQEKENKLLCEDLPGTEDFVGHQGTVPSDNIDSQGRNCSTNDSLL

[6] = biological target: cGMP-inhibited 3',5'-cyclic phosphodiesterase 3A (Homo sapiens, UniProt Q14432); format: functional
Sequence of cGMP-inhibited 3',5'-cyclic phosphodiesterase 3A (Q14432 whole entry): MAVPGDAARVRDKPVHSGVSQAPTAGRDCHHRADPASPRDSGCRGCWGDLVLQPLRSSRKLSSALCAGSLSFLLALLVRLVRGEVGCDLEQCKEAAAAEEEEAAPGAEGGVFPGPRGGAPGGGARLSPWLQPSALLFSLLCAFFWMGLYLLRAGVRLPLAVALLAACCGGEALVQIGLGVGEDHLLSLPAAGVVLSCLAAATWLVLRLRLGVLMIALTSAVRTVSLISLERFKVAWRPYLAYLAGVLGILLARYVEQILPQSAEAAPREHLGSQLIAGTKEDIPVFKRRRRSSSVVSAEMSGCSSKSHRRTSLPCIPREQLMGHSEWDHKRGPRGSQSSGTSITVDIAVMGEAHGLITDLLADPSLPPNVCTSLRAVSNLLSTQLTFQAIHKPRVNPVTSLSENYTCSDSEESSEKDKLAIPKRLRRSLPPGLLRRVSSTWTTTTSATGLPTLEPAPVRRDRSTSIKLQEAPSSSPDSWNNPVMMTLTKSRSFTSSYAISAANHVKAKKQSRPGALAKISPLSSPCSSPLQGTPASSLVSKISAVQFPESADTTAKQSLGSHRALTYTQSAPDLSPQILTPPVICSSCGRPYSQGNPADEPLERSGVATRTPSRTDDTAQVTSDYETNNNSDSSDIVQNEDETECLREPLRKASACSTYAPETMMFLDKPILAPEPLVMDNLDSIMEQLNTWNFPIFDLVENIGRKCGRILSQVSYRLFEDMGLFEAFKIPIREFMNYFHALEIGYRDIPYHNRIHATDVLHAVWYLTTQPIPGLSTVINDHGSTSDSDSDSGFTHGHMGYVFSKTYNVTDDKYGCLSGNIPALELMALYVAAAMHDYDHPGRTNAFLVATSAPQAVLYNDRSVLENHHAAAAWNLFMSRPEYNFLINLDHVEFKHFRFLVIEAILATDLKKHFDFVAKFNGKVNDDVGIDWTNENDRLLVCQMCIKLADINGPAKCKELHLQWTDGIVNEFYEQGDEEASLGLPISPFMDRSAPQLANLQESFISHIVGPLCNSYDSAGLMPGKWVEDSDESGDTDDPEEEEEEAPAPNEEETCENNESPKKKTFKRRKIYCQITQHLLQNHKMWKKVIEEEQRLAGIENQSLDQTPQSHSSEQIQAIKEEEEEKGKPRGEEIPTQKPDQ

Vasopressin V1a receptor = Vasopressin V1a receptor (Homo sapiens, UniProt P37288)
Sequence of Vasopressin V1a receptor (P37288 whole entry): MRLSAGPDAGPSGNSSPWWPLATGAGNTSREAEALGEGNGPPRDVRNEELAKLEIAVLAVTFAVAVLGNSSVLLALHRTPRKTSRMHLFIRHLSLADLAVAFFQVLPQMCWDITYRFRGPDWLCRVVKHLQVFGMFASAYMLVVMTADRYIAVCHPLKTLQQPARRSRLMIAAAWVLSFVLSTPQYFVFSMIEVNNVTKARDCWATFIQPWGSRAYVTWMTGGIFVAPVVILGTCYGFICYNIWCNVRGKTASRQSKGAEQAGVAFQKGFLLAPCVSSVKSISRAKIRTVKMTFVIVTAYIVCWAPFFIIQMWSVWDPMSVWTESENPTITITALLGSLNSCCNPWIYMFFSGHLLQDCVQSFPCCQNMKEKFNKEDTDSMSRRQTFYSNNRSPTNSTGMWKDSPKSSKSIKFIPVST

[7] = biological target: T6, Neuropeptide Y receptor type 1 (Homo sapiens, UniProt P25929)
T6 sequence (P25929 whole entry): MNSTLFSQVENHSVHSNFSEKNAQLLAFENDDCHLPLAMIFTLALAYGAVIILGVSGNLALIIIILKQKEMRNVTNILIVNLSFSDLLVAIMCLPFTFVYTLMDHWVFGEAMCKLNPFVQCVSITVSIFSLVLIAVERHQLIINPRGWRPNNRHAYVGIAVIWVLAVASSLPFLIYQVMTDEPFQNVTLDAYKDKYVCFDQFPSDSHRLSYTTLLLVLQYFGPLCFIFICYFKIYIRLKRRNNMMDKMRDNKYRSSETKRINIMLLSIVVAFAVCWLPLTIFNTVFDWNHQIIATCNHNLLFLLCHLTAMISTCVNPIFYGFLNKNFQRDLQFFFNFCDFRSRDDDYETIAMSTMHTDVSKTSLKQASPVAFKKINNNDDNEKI

[8] = biological target: Muscarinic acetylcholine receptor M3 (Homo sapiens, UniProt P20309)
Sequence of Muscarinic acetylcholine receptor M3 (P20309 whole entry): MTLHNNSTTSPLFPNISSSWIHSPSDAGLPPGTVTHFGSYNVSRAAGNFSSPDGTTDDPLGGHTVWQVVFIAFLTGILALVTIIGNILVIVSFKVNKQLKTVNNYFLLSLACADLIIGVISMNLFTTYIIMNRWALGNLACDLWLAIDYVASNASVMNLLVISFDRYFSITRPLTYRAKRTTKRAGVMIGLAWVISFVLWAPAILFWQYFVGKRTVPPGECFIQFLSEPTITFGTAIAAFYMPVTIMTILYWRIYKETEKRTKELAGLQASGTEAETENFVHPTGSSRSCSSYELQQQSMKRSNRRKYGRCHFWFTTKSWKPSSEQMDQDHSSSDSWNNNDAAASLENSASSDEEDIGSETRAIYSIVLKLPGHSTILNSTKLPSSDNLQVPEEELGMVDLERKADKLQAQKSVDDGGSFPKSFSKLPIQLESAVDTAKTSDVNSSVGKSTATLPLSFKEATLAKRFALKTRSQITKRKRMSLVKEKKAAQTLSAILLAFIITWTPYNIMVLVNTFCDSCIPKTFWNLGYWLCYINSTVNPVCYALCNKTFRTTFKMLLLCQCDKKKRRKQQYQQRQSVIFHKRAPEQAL

Cannabinoid receptor 1 [9] = biological target: T2, Cannabinoid receptor 1; format: functional, cell-based; remark: listed apart in the source
[10] = biological target: T5, Beta-2 adrenergic receptor; format: functional, cell-based
[11] = biological target: T7, Alpha-2B adrenergic receptor (Homo sapiens, UniProt P18089)
T7 sequence (P18089 whole entry): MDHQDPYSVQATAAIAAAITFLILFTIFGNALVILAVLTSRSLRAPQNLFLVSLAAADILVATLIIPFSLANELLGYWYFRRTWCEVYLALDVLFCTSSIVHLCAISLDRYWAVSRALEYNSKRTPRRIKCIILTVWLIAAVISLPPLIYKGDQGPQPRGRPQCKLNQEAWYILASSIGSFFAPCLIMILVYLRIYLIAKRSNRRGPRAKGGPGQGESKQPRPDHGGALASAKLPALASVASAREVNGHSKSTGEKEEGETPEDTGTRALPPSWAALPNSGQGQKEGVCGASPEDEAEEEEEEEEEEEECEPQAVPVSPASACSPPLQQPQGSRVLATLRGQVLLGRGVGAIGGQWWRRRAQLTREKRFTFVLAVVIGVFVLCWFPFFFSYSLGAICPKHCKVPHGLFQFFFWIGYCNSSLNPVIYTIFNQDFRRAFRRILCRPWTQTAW

Histamine H1 receptor = Histamine H1 receptor (Homo sapiens, UniProt P35367)
Sequence of Histamine H1 receptor (P35367 whole entry): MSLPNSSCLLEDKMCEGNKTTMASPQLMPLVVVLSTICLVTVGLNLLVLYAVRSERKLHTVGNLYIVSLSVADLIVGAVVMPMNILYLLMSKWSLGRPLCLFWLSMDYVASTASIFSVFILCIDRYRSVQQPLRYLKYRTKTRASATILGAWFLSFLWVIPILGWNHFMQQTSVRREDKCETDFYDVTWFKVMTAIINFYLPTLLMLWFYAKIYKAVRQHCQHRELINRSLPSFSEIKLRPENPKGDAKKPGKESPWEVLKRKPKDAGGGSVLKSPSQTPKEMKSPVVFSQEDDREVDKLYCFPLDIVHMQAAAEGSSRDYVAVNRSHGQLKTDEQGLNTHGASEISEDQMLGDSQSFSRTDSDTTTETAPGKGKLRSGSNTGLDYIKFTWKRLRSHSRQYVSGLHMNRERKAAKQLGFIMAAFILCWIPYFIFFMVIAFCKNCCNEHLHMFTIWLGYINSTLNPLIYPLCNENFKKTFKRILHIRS
Further: assay procedure not described here.

With `O=C(CCCN1CCC(O)(c2ccc(Br)cc2)CC1)c1ccc(F)cc1` [BROMPERIDOL] the AC50 [1] was over 30 µM, the AC50 (Cannabinoid receptor 1 [2]) was over 30 µM and the AC50 [3] was over 30 µM. For the same compound, the AC50 (Endothelin-1 receptor) was over 30 µM, the AC50 [4] was over 30 µM and the AC50 (Vasopressin V2 receptor) was over 30 µM. The AC50 [5] was over 30 µM, the AC50 [6] was over 30 µM and the AC50 (Vasopressin V1a receptor) was over 30 µM. For the same compound, the AC50 [7] was over 30 µM, the AC50 [8] was 12 µM and the AC50 (Cannabinoid receptor 1 [9]) was over 30 µM. For the same compound, the AC50 [10] was over 30 µM.
With `CC(CN(C)C)C(C)(O)Cc1ccc(Cl)cc1` (stereo not drawn) [CLOBUTINOL] the AC50 [1] was over 10 µM, the AC50 (Cannabinoid receptor 1 [2]) was over 30 µM and the AC50 [3] was over 30 µM. For the same compound, the AC50 [4] was over 10 µM, the AC50 [11] was over 10 µM and the AC50 (Vasopressin V2 receptor) was over 30 µM. It also gave an AC50 [5] of over 30 µM, an AC50 [6] of over 30 µM and an AC50 (Histamine H1 receptor) of over 10 µM. The AC50 [7] was over 30 µM, the AC50 [8] was over 30 µM and the AC50 (Cannabinoid receptor 1 [9]) was over 30 µM. It also gave an AC50 [10] of over 30 µM.
`CCCCOc1ccc(C(=O)CCN2CCCCC2)cc1` [DYCLONINE] gave an AC50 [1] of over 10 µM, an AC50 (Cannabinoid receptor 1 [2]) of over 30 µM and an AC50 [3] of over 30 µM. For the same compound, the AC50 (Endothelin-1 receptor) was over 30 µM, the AC50 [4] was over 10 µM and the AC50 [11] was over 10 µM. For the same compound, the AC50 (Vasopressin V2 receptor) was over 30 µM, the AC50 [5] was over 10 µM and the AC50 [6] was over 10 µM. The AC50 (Histamine H1 receptor) was 8.5 µM, the AC50 (Vasopressin V1a receptor) was over 10 µM and the AC50 [7] was over 30 µM. For the same compound, the AC50 [8] was over 10 µM, the AC50 (Cannabinoid receptor 1 [9]) was over 30 µM and the AC50 [10] was over 30 µM.
Compound `O=C1Nc2ccc(Cl)cc2C(c2ccccc2Cl)=NC1O` (stereo not drawn) [LORAZEPAM] has an AC50 [1] of over 10 µM, an AC50 (Cannabinoid receptor 1 [2]) of over 30 µM and an AC50 [3] of over 30 µM. The AC50 (Endothelin-1 receptor) was over 30 µM, the AC50 [4] was 0.0074 µM and the AC50 (Vasopressin V2 receptor) was over 30 µM. The AC50 [5] was over 10 µM, the AC50 [6] was over 30 µM and the AC50 (Vasopressin V1a receptor) was over 10 µM. It also gave an AC50 [7] of over 30 µM, an AC50 (Cannabinoid receptor 1 [9]) of over 30 µM and an AC50 [10] of over 30 µM.
With `Cc1ccnc2c1NC(=O)c1cccnc1N2C1CC1` [NEVIRAPINE] the AC50 [1] was over 10 µM, the AC50 (Cannabinoid receptor 1 [2]) was over 30 µM and the AC50 [3] was over 30 µM. It also gave an AC50 (Endothelin-1 receptor) of over 30 µM, an AC50 [4] of over 10 µM and an AC50 (Vasopressin V2 receptor) of over 30 µM. It also gave an AC50 [5] of over 10 µM, an AC50 [6] of 4.5 µM and an AC50 (Vasopressin V1a receptor) of over 10 µM. For the same compound, the AC50 [7] was over 30 µM, the AC50 (Cannabinoid receptor 1 [9]) was over 30 µM and the AC50 [10] was over 30 µM.
For `CCC(=O)O[C@](Cc1ccccc1)(c1ccccc1)[C@H](C)CN(C)C` [PROPOXYPHENE], the AC50 [1] was over 10 µM, the AC50 (Cannabinoid receptor 1 [2]) was over 30 µM and the AC50 [3] was over 30 µM. For the same compound, the AC50 (Endothelin-1 receptor) was over 30 µM, the AC50 [4] was over 10 µM and the AC50 [11] was over 10 µM. For the same compound, the AC50 (Vasopressin V2 receptor) was over 30 µM, the AC50 [5] was over 10 µM and the AC50 [6] was over 30 µM. The AC50 (Histamine H1 receptor) was over 10 µM, the AC50 (Vasopressin V1a receptor) was over 10 µM and the AC50 [7] was over 30 µM. The AC50 [8] was 16 µM, the AC50 (Cannabinoid receptor 1 [9]) was over 30 µM and the AC50 [10] was over 30 µM.
Work on `CCc1nc(N)nc(N)c1-c1ccc(Cl)cc1` [PYRIMETHAMINE] yielded an AC50 [1] of over 10 µM, an AC50 (Cannabinoid receptor 1 [2]) of over 30 µM and an AC50 [3] of over 10 µM. The AC50 [4] was over 10 µM, the AC50 [11] was over 10 µM and the AC50 (Vasopressin V2 receptor) was over 10 µM. It also gave an AC50 [5] of over 10 µM, an AC50 [6] of over 30 µM and an AC50 (Histamine H1 receptor) of over 30 µM. It also gave an AC50 (Vasopressin V1a receptor) of over 10 µM, an AC50 [7] of over 10 µM and an AC50 [8] of over 30 µM. For the same compound, the AC50 (Cannabinoid receptor 1 [9]) was over 30 µM and the AC50 [10] was over 30 µM.
Work on `CCOC(=O)c1ccc(C#Cc2ccc3c(c2)C(C)(C)CCS3)nc1` [TAZAROTENE] yielded an AC50 [1] of over 10 µM, an AC50 [3] of over 30 µM and an AC50 [4] of over 10 µM. The AC50 [11] was over 10 µM, the AC50 (Vasopressin V2 receptor) was over 30 µM and the AC50 [5] was over 10 µM. For the same compound, the AC50 [6] was over 30 µM, the AC50 (Histamine H1 receptor) was over 10 µM and the AC50 [7] was over 30 µM. It also gave an AC50 [8] of over 30 µM and an AC50 [10] of over 30 µM.
`CCOC(=O)[C@@H](N)Cc1ccc(-c2cc(O[C@H](c3ccc(Cl)cc3-n3ccc(C)n3)C(F)(F)F)nc(N)n2)cc1` [TELOTRISTAT ETHYL] was tested, and the AC50 [1] was over 30 µM, the AC50 [3] was 10 µM and the AC50 (Endothelin-1 receptor) was over 30 µM. For the same compound, the AC50 [4] was over 30 µM, the AC50 [11] was 29 µM and the AC50 (Vasopressin V2 receptor) was over 30 µM. It also gave an AC50 [6] of over 30 µM, an AC50 (Histamine H1 receptor) of over 30 µM and an AC50 (Vasopressin V1a receptor) of over 30 µM. The AC50 [7] was over 30 µM, the AC50 [8] was over 30 µM and the AC50 (Cannabinoid receptor 1 [9]) was over 30 µM. For the same compound, the AC50 [10] was over 30 µM.
